Reference: US20140294729A1, “METHODS FOR IDENTIFICATION AND USE OF AGENTS TARGETING CANCER STEM CELLS” (Whitehead Institute for Biomedical Research, priority 2008, published 2014)
“Also recorded” adds a separate entry of the source. *1 amine or outer side, *2 acyl side, *3 side chain or, on linkers, in order; H or OH if unused. Where a SMILES comes first, the peptide text is derived from it. Bridges are numbered along the chain shown (N, C = ends). Roman numbers before positions name the chains, in order. [ ]: non-standard residue; d: D form. Actinocin(9to1) = Cc1c2oc3c(C)ccc(C(=O)[*:1])c3nc-2c(C(=O)[*:2])c(N)c1=O; NMeV = CN[C@H](C(=O)O)C(C)C; Sar = CNCC(=O)O

How the values were obtained:
HMLEshEcad cells [1] = assay: Dose-response viability of HMLEshCntrl vs HMLEshEcad cells (validation of hits, 384-well, Cell-Titer-Glo); format: cell-based, human; conditions: FIG. 4A; for selective toxicity towards HMLEshEcad cells relative to HMLEshCntrl cells: dose response on retesting; for IC50 fold lower for HMLEshEcad cells vs HMLEshCntrl cells: 3 day treatment, 8 concentrations
Experimental: (§1) FIG. 4A depicts dose response curves of HMLEshCntrl (A, light gray curve) and HMLEshEcad (A, dark gray curve) cells treated with the 8 compounds identified during the initial screen. 1000 cells of each line were seeded onto 384 well plates and treated with 8 different concentrations of compounds within a 2.5 log range. The cell viability after 3 day treatment was measured by Cell-Titer-Glo. […] FIG. 4B depicts dose response curves of HMLEshCntrl (curve with square data points) and HMLE-Twist (curve with triangular data points) cells treated with the same compounds as in (A). Note that selectivity of Salinomycin, Abamectin, Etoposide and Nigericin (Top, Left-to-Right) is retained even though a different method of EMT induction is used. […] 1 Day after seeding DMSO, Salinomycin (1.25 or 5 μM) or Abamectin (0.25 or 1.25 μM) was added at the indicated concentration. As the GFP vector contains a Blasticidin resistance gene, we used Blasticidin treatment as a positive control for the expansion of GFP-expressing control HMLE cells. After 3 day incubation the mix population of cells were analyzed by flow cytometry and the percentage of GFP-positive cells were determined. […] FIG. 4D depicts dose response curves of transformed HMLERshCntrl (light gray line) and HMLERshEcad (dark gray lines) cells treated with Salinomycin and Abamectin. Dotted line denotes the 50% fraction surviving.
We pursued 8 of the 32 compounds for further study and evaluated their effects across a range of doses.
For each of these compounds, we evaluated the effect on cell viability across a series of doses for sibling cell lines either induced into or not induced into EMT.
Information about the general automated HTS protocol is available online at broad.harvard.edu/chembio/index.html. The assay was initiated by plating 40 μL of medium containing 1000 cells/well into white 384-well opaque-bottom plates (Nunc, Rochester, N.Y.) using an automated plate filler (Bio-Tek μFiller; Winsooki, Vt.) and allowing the cells to adhere for 24 hours. 100 nL of compound stock solutions in dmso was transferred from stock plates into the 384-well assay plates using an automated pin-based compound transfer robot (CyBio CyBi-Well vario; Woburn, Mass.). For most compounds the final concentration in each well was calculated to be 10 uM.
The screen was performed in duplicate. For negative controls, entire dmso-treated control plates were employed, in addition to dmso-only control wells that were incorporated into each compound assay plate. The cells were assayed for luciferase activity with the addition 20 ul of CellTiter-Glo Luminescent Cell Viability Assay solution (Promega). The luminescent signal from each plate was detected using an automated plate reader (Perkin-Elmer Envision 1; Wellesley, Mass.).
(§2) Individual compounds were purchased from Sigma and dissolved in DMSO with the exception of nigericin which was dissolved in 100% ethanol. Activity of the compounds were quantified by generating dose-response curves for HMLE-shCntrl, HMLE-shEcad and HMLE-Twist under the same cell density and culture conditions described for the initial screen, using the 384-well plate based system.

HMLEshEcad cells [2] = assay: Resistance to cytotoxic agents, immortalized HMLEshCntrl vs HMLEshEcad (MTS viability); format: cell-based, human; conditions: three concentrations, FIG. 2B
Experimental: (§3) FIGS. 2A-2D depict that passage through the EMT leads to resistance to conventional chemotherapy drugs. FIG. 2A depicts dose response curves of transformed HMLERshCntrl (light gray line) and HMLERshEcad (dark gray line) cells treated with Paclitaxel and Doxorubicin. Dotted line denotes the 50% fraction surviving. […] FIG. 2B depicts the response of immortalized cells to chemotherapy drugs. HMLEshCntrl and HMLEshEcad cells were treated with the indicated drugs at three concentrations for 3 days and assayed for viability using the MTS assay. While Doxorubucin, Actinomycin D, Paclitaxel and Campthotecin are chemotherapeutic drugs, Staurosporine is a general kinase inhibitor that potently induce apoptosis. FIGS. 2C and 2D depict paclitaxel treatment leads to selective expansion of a minority cell population that has undergone an EMT. Control HMLE cells and GFP expressing HMLEshEcad cells were mixed at a ratio of 20:1 and seeded onto 6-well plates in triplicate. DMSO or Paclitaxel at 2.5 nm or 10 nm concentration was added onto the mixed cell populations 1 day after seeding followed by a 3 day incubation. The number of GFP-positive cells at the end of treatment were analyzed by flow cytometry. […] Note the increase in GFP positivity from 5% to 14% upon […] Paclitaxel treatment.
However, we postulated that the differential drug sensitivity observed was, rather, a consequence of the respective differentiation states of the immortalized cells from which the cancer cell lines were derived. To directly examine this hypothesis, we treated HMLEsiGFP and HMLEsiEcad cells for a period of […] with a series of chemical compounds at 3 different concentrations each. Included in these compounds were the established chemotherapy drugs Doxorubicin, Paclitaxel, Actinomycin D, Camptothecin as well as a broad kinase inhibitor, Staurosporine.
(§4) Doxorubicin, paclitaxel, actinomycin D, campthotecin and staurosporine were purchased from Sigma and dissolved in dimethyl sulfoxide (dmso). 5000 cells in 100 ul of medium were plated per well in 96-well plates. 24 hrs after seeding, compounds at the indicated concentration were added to wells (5 wells per each concentration). Dmso treatment was used as negative control. Cell viability was measured after 72 hrs using the CellTiter96 AQueous Assay (Promega) according to manufacturer's instructions. Dose response curves were generated with GraphPad Prism software (GraphPad Software, Inc.).

HMLE-Twist cells [3] = assay: Co-culture of GFP-expressing HMLE cells and unlabelled HMLE-Twist cells, FACS for GFP positivity; format: cell-based, human; conditions: FIG. 4C; for GFP-positive fraction relative to DMSO-treated controls: GFP-labeled HMLE + unlabeled HMLE-Twist
Experimental: as §1
To examine the effects of salinomycin and abamectin treatment on heterogeneous populations of epithelial cells that have and epithelial cells that have not undergone EMT, we co-mixed GFP-labeled HMLE cells with unlabeled HMLE-Twist cells, treating the resulting co-cultures with compounds. As a positive control for this experiment we treated co-cultures with blasticidin, which selects for the differentiated HMLE-GFP cells, which harbor a blasticidin-resistance gene.
For the mix experiments, unlabelled and GFP-labeled cells were mixed at the indicated ratios and seeded onto 6-well plates. Triplicate wells were then treated with dmso or the compounds (paclitaxel, salinomycin, abamectin and blasticidin) for 48 hrs. The cells were washed with PBS, trypsinized and analyzed by FACS for GFP positivity.

HMLERshEcad cells [4] = assay: Resistance to cytotoxic agents, transformed HMLERshCntrl vs HMLERshEcad dose response; format: cell-based, human; conditions: FIG. 2A
Experimental: as §3
Since the HMLERsiEcad cells have a 100-fold increase in the frequency of cells capable of seeding tumors, we examined their response to two commonly used chemotherapy drugs, relative to HMLERsiGFP controls. We treated cultured HMLERsiGFP and HMLERsiEcad cells for a period of 3 days with either doxorubicin or paclitaxel, at various concentrations.
as §4

HMLE-Twist cells [5] = assay: Dose-response viability of HMLEshCntrl vs HMLE-Twist cells; format: cell-based, human; conditions: EMT induced by Twist, FIG. 4B
Experimental: as §1, §2

HMLERshEcad cells [6] = assay: Dose response of transformed HMLERshCntrl vs HMLERshEcad cells to screen hits; format: cell-based, human; conditions: range of concentrations, FIG. 4D
Experimental: as §1

SUM159 cells = assay: FACS of the CD44hi/CD24lo fraction in treated SUM159 cells; format: cell-based; conditions: FIGS. 5C and 5D
Source text: FIG. 5A depicts flow cytometry analysis of Sum159, MDA-MB-231 and T47D cell lines with respect to cell surface expression of CD44 and CD24. Note that while the majority of cells in Sum159 and MDA-MB-231 line contain large amounts of CSCs, T47D cells have very few such cells. FIG. 5B depicts dose response curves of Sum159, MDA-MB-231 and T47D cell treated with Salinomycin.
To further characterize the effects of compound treatment on cancer cells, we conducted FACS analyses on SUM159 cells treated with salinomycin, abamectin, taxol, or DMSO.
The anti-CD44 (clone G44-26) antibody conjugated to APC and the anti-CD24 antibody (clone ML5) conjugated to PE used for FACS analysis were obtained from BD Bioscience and used according to the manufacturer's instructions. Propidium Iodide (5 ug/ml) was included in the staining protocol to distinguish live cells.

Molecule: c1ccc2nc3ccccc3cc2c1 [Acridine]
- selective toxicity towards HMLEshEcad cells relative to HMLEshCntrl cells (HMLEshEcad cells [1]): do not display such a behaviour

Molecule: Clc1ccccc1C(c1ccccc1)(c1ccccc1)n1ccnc1 [Clotrimazole]
- selective toxicity towards HMLEshEcad cells relative to HMLEshCntrl cells (HMLEshEcad cells [1]): do not display such a behaviour

Molecule: Oc1cccc(O)c1 [Resorcinol]
- selective toxicity towards HMLEshEcad cells relative to HMLEshCntrl cells (HMLEshEcad cells [1]): do not display such a behaviour

Molecule: Cc1c2oc3c(C)ccc(C(=O)N[C@@H]4C(=O)N[C@H](C(C)C)C(=O)N5CCC[C@H]5C(=O)N(C)CC(=O)N(C)[C@@H](C(C)C)C(=O)O[C@@H]4C)c3nc-2c(C(=O)N[C@@H]2C(=O)N[C@H](C(C)C)C(=O)N3CCC[C@H]3C(=O)N(C)CC(=O)N(C)[C@@H](C(C)C)C(=O)O[C@@H]2C)c(N)c1=O [actinomycin D] (I: T[dV]P[Sar][NMeV] / II: T[dV]P[Sar][NMeV]; ester I:1-I:C, II:1-II:C; linker I:N-II:N via Actinocin(9to1))
- resistance of HMLEshEcad cells relative to HMLEshCntrl control cells (HMLEshEcad cells [2]): resistant
- resistance of HMLEshEcad cells relative to HMLEshCntrl control cells (HMLEshEcad cells [2]; listed as Actinomycin D): increased resistance

Molecule: CN(CC[C@H](N)CC(=O)N[C@H]1C=C[C@H](n2ccc(N)nc2=O)O[C@@H]1C(=O)O)C(=N)N [blasticidin]
- GFP-positive fraction relative to DMSO-treated controls (HMLE-Twist cells [3]): increase

Molecule: CC[C@@]1(O)C(=O)OCc2c1cc1n(c2=O)Cc2cc3ccccc3nc2-1 [camptothecin]
- resistance of HMLEshEcad cells relative to HMLEshCntrl control cells (HMLEshEcad cells [2]): resistant
- resistance of HMLEshEcad cells relative to HMLEshCntrl control cells (HMLEshEcad cells [2]; listed as Camptothecin): increased resistance

Molecule: COc1cccc2c1C(=O)c1c(O)c3c(c(O)c1C2=O)C[C@@](O)(C(=O)CO)C[C@@H]3O[C@H]1C[C@H](N)[C@H](O)[C@H](C)O1 [doxorubicin]
- resistance of HMLEshEcad cells relative to HMLEshCntrl control cells (HMLEshEcad cells [2]): increased resistance
- IC50 for HMLERsiEcad cells relative to IC50 for HMLERsiGFP cells (HMLERshEcad cells [4]; 3 days, various concentrations): significantly higher
- resistance of HMLERshEcad cells compared to HMLERshCntrl cells (HMLERshEcad cells [4]): significantly more resistant
- resistance of HMLERshEcad cells compared to HMLERshCntrl cells (HMLERshEcad cells [4]; listed as Doxorubicin): more resistant

Molecule: CO[C@@H]1C[C@@H](C[C@H]2CC[C@H](C)[C@H]([C@@H](C)C(=O)O)O2)O[C@]2(O[C@](C)([C@H]3CC[C@@](C)([C@@H]4O[C@@H]([C@H]5O[C@@](O)(CO)[C@H](C)C[C@@H]5C)C[C@@H]4C)O3)C[C@H]2C)[C@@H]1C [nigericin]
- IC50 fold lower for HMLEshEcad cells vs HMLEshCntrl cells (HMLEshEcad cells [1]): ~7 fold
- selective toxicity towards HMLEshEcad cells relative to HMLEshCntrl cells (HMLEshEcad cells [1]): weaker selectivity; also recorded: modest selective toxicity
- selective toxicity towards HMLEshEcad cells relative to HMLEshCntrl cells (HMLEshEcad cells [1]; listed as Nigericin): selective toxicity
- selectivity for HMLE-Twist cells vs HMLEshCntrl; dose-response curves compared with HMLEshEcad (HMLE-Twist cells [5]): is retained

Molecule: CN[C@@H]1C[C@H]2O[C@@](C)([C@@H]1OC)n1c3ccccc3c3c4c(c5c6ccccc6n2c5c31)C(=O)NC4 [staurosporine]
- resistance of HMLEshEcad cells relative to HMLEshCntrl control cells (HMLEshEcad cells [2]): resistant
- resistance of HMLEshEcad cells relative to HMLEshCntrl control cells (HMLEshEcad cells [2]; listed as Staurosporine): increased resistance

Molecule: abamectin
- IC50 fold lower for HMLEshEcad cells vs HMLEshCntrl cells (HMLEshEcad cells [1]): ~10 fold
- selective toxicity towards HMLEshEcad cells relative to HMLEshCntrl cells (HMLEshEcad cells [1]): moderate to strong selectivity; also recorded: strong specificity
- selective toxicity towards HMLEshEcad cells relative to HMLEshCntrl cells (HMLEshEcad cells [1]; listed as Abamectin): selective toxicity
- selective toxicity for HMLERshEcad (MT tumorigenic) cells (HMLERshEcad cells [6]): modest but selective toxicity
- selectivity for HMLE-Twist cells vs HMLEshCntrl; dose-response curves compared with HMLEshEcad (HMLE-Twist cells [5]): is retained
- GFP-positive fraction relative to DMSO-treated controls (HMLE-Twist cells [3]): increase
- proportion of HMLETwist cells in co-culture with control cells (HMLE-Twist cells [3]; Salinomycin 1.25 or 5 μM, Abamectin 0.25 or 1.25 μM): dose-dependent decrease; also recorded: selection against the GFP-negative HMLE-twist cells
- percent of cells in the CD44hi/CD2410 fraction relative to DMSO controls (SUM159 cells): did not significantly alter
